Source: patent US20110224079A1, “SPIROHETEROCYCLIC N-OXYAMIDES AS PESTICIDES” (SYNGENTA CROP PROTECTION LLC, priority 2008, published 2011)

Columns and labels:
[1] = system: Frankliniella occidentalis (western flower thrips); experiment: Example B6: activity against Frankliniella occidentalis, bean leaf discs or bean plants; format: in vivo; details: foliar, 6 days (leaf discs) or 14 days (plants) after infestation, read-out: activity (reduction of treated population)
Method: Activity Against Frankliniella occidentalis (Western Flower Thrips)
Bean leaf discs on agar in petri dishes or bean plants in a spray chamber are treated with diluted test solutions. After drying leaf discs are cut and placed in plastic cups on the surface of an agar layer and infested with mixed population. 6 days (leaf discs) or 14 days (plants) after the infestation, samples are checked for reduction of treated population and compared to the non treated population.

[2] = system: Bemisia tabaci (tobacco white fly); experiment: Example B7: activity against Bemisia tabaci, sprayed bean plants (larvicide, contact/feeding); format: in vivo; details: 504 h, bean plants with N-2 nymphs sprayed, three weeks, read-out: activity (efficacy, number of emerged adults)
Method: Activity Against Bemisia tabaci (Tobacco White Fly)
(Larvicide, Contact/Feeding)
Bean plants are infested with 20-30 adults that were removed after a 4 day egg-laying period. After another 7 days, bean plants with hatched nymphs (N-2) are treated (2 replicates) with the test solutions in a spray chamber. Three weeks later, samples are checked for number of emerged adults. Efficacy was calculated by comparing number of emerged adults in treated and non treated samples.

[3] = system: Aphis Craccivora (cowpea aphid); experiment: Example B10: activity against Aphis craccivora, pea seedling roots in test solution (systemic/feeding); format: in vivo; details: 144 h, roots of infested pea seedlings in test solution, 6 days
Source text: Activity Against Aphis Craccivora (Cowpea Aphid)
(Mixed Population, Systemic/Feeding)

[4] = system: Aphis Craccivora (cowpea aphid); experiment: Example B11: translaminar activity against Aphis craccivora on French bean leaves; format: in vivo; details: 120 h, upper leaf side painted, aphids on lower side, 5 days
Method: Translaminar Activity Against Aphis Craccivora (Cowpea Aphid)
French bean leaves (Phaseolus vulgaris) are infested with about 20 mixed age individuals on the lower leaf side using clip cages. 1 day after the infestation, the upper side of the leaves is treated with the test solution by painting. 5 days later, samples are checked for mortality.

[5] = system: Myzus persicae (green peach aphid); experiment: Example B17: activity against Myzus persicae on sprayed pepper plants (feeding/residual contact); format: in vivo; details: 144 h, infested pepper plants sprayed, 6 days
[6] = system: Myzus persicae (green peach aphid); experiment: Example B13: drench activity against Myzus persicae, pea seedlings in field soil; details: 168 h, read-out: drench activity (mortality)
[7] = system: Nilaparvata lugens (brown rice planthopper); experiment: Example B8: activity against Nilaparvata lugens, sprayed rice seedlings (larvicide, feeding/contact); details: in Oryza sativa, read-out: activity (mortality, growth regulation, effects on F1 generation)
[8] = system: Myzus persicae (green peach aphid); experiment: Example B2: activity against Myzus persicae, pea seedling roots in test solution (systemic/feeding, curative); details: 144 h, read-out: activity (mortality)
[9] = system: Myzus persicae (green peach aphid); experiment: Example B1: activity against Myzus persicae, sprayed sunflower leaf discs (feeding/residual contact, preventive); details: foliar, 144 h, read-out: activity (mortality)
[10] = system: Tetranychus urticae (two-spotted spider mite); experiment: Example B4: activity against Tetranychus urticae, sprayed bean leaf discs (feeding/residual contact, preventive); details: foliar, 192 h, read-out: activity (egg, larval and adult mortality)
[11] = system: Thrips tabaci (onion thrips); experiment: Example B3: activity against Thrips tabaci, sprayed sunflower leaf discs (feeding/residual contact, preventive); format: in vivo; details: foliar, 144 h, mixed population, 6 days
Source text: Activity Against Thrips tabaci (Onion Thrips)
(Mixed Population, Feeding/Residual Contact Activity, Preventive)

SMILES | pest or weed control at 400 ppm [1] | pest or weed control at 200 ppm [2] | mortality at 400 ppm [3] | mortality at 400 ppm [4] | mortality at 200 ppm [5] | mortality at 25 ppm [6] | mortality at 400 ppm [7] | mortality at 400 ppm [8] | mortality at 400 ppm [9] | mortality at 400 ppm [10] | mortality at 400 ppm [11]
CCOC(=O)OC1=C(c2c(C)cc(C)cc2C)C(=O)N(OC2CCCCO2)C12CCN(OC)CC2 (stereo not shown) [P1.10] | > 80% | > 80% | > 80% | > 80% | ≥ 80% | > 80% | > 80% | > 80% | > 80% | > 80% | –
CCOC(=O)OC1=C(c2cc(C)ccc2C)C(=O)N(O)C12CCN(OC)CC2 [P1.12] | – | – | – | – | – | – | > 80% | > 80% | > 80% | – | > 80%
CCOC(=O)OC1=C(c2c(C)cc(C)cc2C)C(=O)N(OC(C)C)C12CCN(OC)CC2 [P1.14] | > 80% | – | – | > 80% | ≥ 80% | – | – | > 80% | – | – | –
CCOC(=O)OC1=C(c2c(C)cc(C)cc2C)C(=O)N(OCC2CC2)C12CCN(OC)CC2 [P1.18] | > 80% | > 80% | – | > 80% | ≥ 80% | > 80% | > 80% | > 80% | > 80% | > 80% | –
CCOC(=O)OC1=C(c2c(C)cc(C)cc2C)C(=O)N(OCC2CCCO2)C12CCN(OC)CC2 (stereo not shown) [P1.24] | – | – | > 80% | > 80% | ≥ 80% | > 80% | > 80% | > 80% | > 80% | > 80% | –
CCOC(=O)OC1=C(c2c(C)cc(C)cc2C)C(=O)N(OC2CCC2)C12CCN(OC)CC2 [P1.45] | > 80% | – | – | > 80% | ≥ 80% | – | > 80% | > 80% | > 80% | > 80% | –
CCOC(=O)OC1=C(c2ccc(C)cc2C)C(=O)N(OC2CCCO2)C12CCN(OC)CC2 (stereo not shown) [P1.47] | – | – | – | – | – | – | – | > 80% | > 80% | > 80% | > 80%
CCOCON1C(=O)C(c2ccc(C)cc2C)=C(OC(=O)OCC)C12CCN(OC)CC2 [P1.49] | – | – | – | > 80% | – | > 80% | > 80% | > 80% | > 80% | > 80% | > 80%
CCOC(=O)OC1=C(c2c(C)ccc(C)c2Cl)C(=O)N(OCOC)C12CCN(OC)CC2 [P1.59] | – | – | > 80% | > 80% | – | > 80% | > 80% | > 80% | > 80% | > 80% | –
CCOC(=O)OC1=C(c2c(C)cc(Br)cc2C)C(=O)N(OCOC)C12CCN(OC)CC2 [P1.62] | – | – | – | – | – | – | – | – | – | – | > 80%
CCOC(=O)OC1=C(c2c(C)cc(C)cc2C)C(=O)N(OCC2CCOC2)C12CCN(OC)CC2 (stereo not shown) [P1.78] | – | > 80% | > 80% | > 80% | ≥ 80% | > 80% | > 80% | > 80% | – | > 80% | –
CCOC(=O)OC1=C(c2c(C)cc(C)cc2C)C(=O)N(OCc2ccco2)C12CCN(OC)CC2 [P1.81] | – | – | – | – | ≥ 80% | – | – | > 80% | > 80% | > 80% | > 80%
CCOCON1C(=O)C(c2c(C)cc(C)cc2C)=C(O)C12CCN(OC)CC2 [P2.10] | > 80% | – | > 80% | > 80% | ≥ 80% | – | > 80% | > 80% | > 80% | – | > 80%
CON1CCC2(CC1)C(O)=C(c1c(C)cc(C)cc1C)C(=O)N2OC(C)C [P2.11] | > 80% | – | – | – | ≥ 80% | > 80% | – | > 80% | – | > 80% | –
C=CCON1C(=O)C(c2c(C)cc(C)cc2C)=C(O)C12CCN(OC)CC2 [P2.12] | > 80% | > 80% | – | > 80% | ≥ 80% | > 80% | – | > 80% | > 80% | > 80% | –
CON1CCC2(CC1)C(O)=C(c1c(C)cc(C)cc1C)C(=O)N2OC1CCOCC1 [P2.21] | – | – | > 80% | > 80% | ≥ 80% | > 80% | > 80% | > 80% | > 80% | > 80% | –
CON1CCC2(CC1)C(O)=C(c1c(C)cc(C)cc1C)C(=O)N2OC1CCC1 [P2.30] | > 80% | – | – | > 80% | ≥ 80% | > 80% | – | > 80% | > 80% | > 80% | –
CON1CCC2(CC1)C(O)=C(c1ccc(C)cc1C)C(=O)N2OC [P2.51] | – | – | – | – | – | – | – | > 80% | > 80% | – | > 80%
COCON1C(=O)C(c2c(C)ccc(C)c2C)=C(O)C12CCN(OC)CC2 [P2.54] | > 80% | – | > 80% | > 80% | ≥ 80% | > 80% | – | > 80% | > 80% | – | –
CON1CCC2(CC1)C(O)=C(c1c(C)cc(C)cc1Cl)C(=O)N2OC [P2.55] | > 80% | – | > 80% | > 80% | – | > 80% | > 80% | > 80% | > 80% | > 80% | –
CON1CCC2(CC1)C(O)=C(c1c(C)cc(C)cc1Br)C(=O)N2OC [P2.56] | > 80% | – | > 80% | > 80% | – | > 80% | – | > 80% | > 80% | > 80% | –
COCCON1C(=O)C(c2c(C)cc(C)cc2Br)=C(O)C12CCN(OC)CC2 [P2.57] | – | – | > 80% | > 80% | – | > 80% | > 80% | > 80% | > 80% | > 80% | –
CON1CCC2(CC1)C(O)=C(c1c(C)cc(Br)cc1C)C(=O)N2OC1CCCO1 (stereo not shown) [P2.62] | – | – | – | – | ≥ 80% | – | – | > 80% | – | – | > 80%
CON1CCC2(CC1)C(O)=C(c1c(C)cc(C)cc1C)C(=O)N2OCc1ccoc1 [P2.64] | – | > 80% | > 80% | > 80% | ≥ 80% | > 80% | > 80% | > 80% | > 80% | > 80% | –
CON1CCC2(CC1)C(O)=C(c1c(C)cc(C)cc1C)C(=O)N2OCC1CCOC1 (stereo not shown) [P2.67] | – | – | – | – | ≥ 80% | – | – | > 80% | > 80% | > 80% | > 80%
COCCON1C(=O)C(c2c(C)cccc2C)=C(O)C12CCN(OC)CC2 [P2.77] | – | – | – | – | ≥ 80% | – | – | > 80% | > 80% | – | > 80%
CON1CCC2(CC1)C(O)=C(c1c(C)cc(C)cc1C)C(=O)N2OCC1CCOCC1 [P2.84] | – | – | – | – | – | – | – | > 80% | > 80% | – | > 80%
